The assay concerns the target T1, OPRT (Homo sapiens, UniProt P11172).
T1 construct: the obtained supernatant was used as a DPD enzyme solution or an OPRT enzyme solution; from tissue; 105,000 g supernatant of homogenate
T1 sequence (P11172 1-480): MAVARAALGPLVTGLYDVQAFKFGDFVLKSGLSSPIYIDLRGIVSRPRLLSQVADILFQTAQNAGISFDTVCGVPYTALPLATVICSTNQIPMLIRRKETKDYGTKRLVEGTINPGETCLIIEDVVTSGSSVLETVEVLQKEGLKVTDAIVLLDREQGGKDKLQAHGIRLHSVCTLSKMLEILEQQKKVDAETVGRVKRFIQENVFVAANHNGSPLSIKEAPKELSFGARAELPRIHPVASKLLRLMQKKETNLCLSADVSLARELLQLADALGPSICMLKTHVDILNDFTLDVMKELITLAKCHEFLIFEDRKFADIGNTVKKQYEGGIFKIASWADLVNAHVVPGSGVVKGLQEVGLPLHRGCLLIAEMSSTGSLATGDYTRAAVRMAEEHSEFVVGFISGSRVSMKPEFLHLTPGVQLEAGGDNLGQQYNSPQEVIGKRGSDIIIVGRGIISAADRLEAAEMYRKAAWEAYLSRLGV
Description: OPRT inhibitory action in vitro (enzyme reaction, tritium-labeled 5-FU as substrate). The class given is biochemical. As for the experimental part:
The resulting product was diluted to concentrations of 1 mM, 100 μM, 10 μM, and 1 μM with a 10 mM potassium phosphate buffer solution (pH 6.0), thereby obtaining Test Liquids 1. The obtained Test Liquids 1 were separately added to the enzyme reaction solution described below to give final concentrations of 200 μM, 20 μM, 2 μM, and 0.2 μM. • (b) Test liquid preparation (2): As a DPD inhibitor, 5-chloro-2,4-dihydroxypyridine (CDHP; gimeracil) was dissolved to a concentration of 10 mM in a 10 mM potassium phosphate buffer solution (pH 6.0). The resulting product was diluted to concentrations of 1 mM, 100 μM, 10 μM, and 1 μM, thereby obtaining Test Liquids 2. The obtained Test Liquids 2 were separately added to the enzyme reaction solution to give final concentrations of 200 μM, 20 μM, 2 μM, and 0.2 μM. • (c) Test liquid preparation (3): As an OPRT inhibitor, citrazinic acid (Citra. A.) was dissolved to a concentration of 10 mM in 20 mM trishydroxyaminomethane-hydrochloric buffer solution (pH 8.0). Thereafter, the resulting product was diluted to concentrations of 1 mM, 100 μM, and 10 μM with a 10 mM potassium phosphate buffer solution, thereby obtaining Test Liquids (3). The obtained Test Liquids 3 were separately added to the enzyme reaction solution to give final concentrations of 200 μM, 20 μM, and 2 μM. • (d) Preparation of enzyme solution: The liver of an 8-week old SD rat was used as a DPD enzyme source, while human tumor cells that had been transplanted into a nude mouse and proliferated therein were used as an OPRT enzyme source. Specifically, immediately after a rat liver or successively-transplanted human tumor cells were extracted, a 50-mM tris-hydrochloric acid buffer solution (pH 8.0) containing 0.25 M saccharose, 5 mM magnesium chloride, and 1 mM dithreitol was added thereto to a concentration of 25% (w/v) and homogenized. Thereafter, ultracentrifugation was performed at 105,000 g for 60 minutes, and the obtained supernatant was used as a DPD enzyme solution or an OPRT enzyme solution. • (e) Enzyme reaction: A DPD enzyme reaction was carried out in accordance with the method of Tatsumi et al. (Gann, 78: 748-755 (1987)) using 5-FU labeled with tritium as a substrate. An OPRT enzyme reaction was carried out in accordance with the method of Shirasaka et al. (Cancer Res., 53: 4004-4009 (1993)) using 5-FU labeled with tritium as a substrate. Then, the activity of a control group (with no test compound) and test compound groups was measured. The percent inhibition of the test compound relative to DPD or OPRT was calculated using the following formula: [1-(the enzyme activity with the test compound/the enzyme activity of the control group)]×100(%).
The resulting product was diluted to concentrations of 1 mM, 100 μM, 10 μM, and 1 μM with a 10 mM potassium phosphate buffer solution (pH 6.0), thereby obtaining Test Liquids 1. The obtained Test Liquids 1 were separately added to the enzyme reaction solution described below to give final concentrations of 200 μM, 20 μM, 2 μM, and 0.2 μM. • (b) Preparation of enzyme solution: The liver of an 8-week old SD rat was used as a DPD enzyme source, while human tumor cells that had been transplanted into a nude mouse and proliferated therein were used as an OPRT enzyme source. Specifically, immediately after a rat liver or successively-transplanted human tumor cells were extracted, a 50-mM tris-hydrochloric acid buffer solution (pH 8.0) containing 0.25 M saccharose, 5 mM magnesium chloride, and 1 mM dithreitol was added thereto to a concentration of 25% (w/v) and homogenized. Thereafter, ultracentrifugation was performed at 105,000 g for 60 minutes, and the obtained supernatant was used as a DPD enzyme solution or an OPRT enzyme solution. • (c) Enzyme reaction: A DPD enzyme reaction was carried out in accordance with the method of Tatsumi et al. (Gann, 78: 748-755 (1987)) using 5-FU labeled with tritium as a substrate. […]

[1] abbreviates: 0.2 μM, Table 2, read-out: OPRT Inhibition (%).
[2] abbreviates: 2 μM, Table 2, read-out: OPRT Inhibition (%).
Where [3] appears, read: Conc. 0.2 μM, Table 1, read-out: OPRT Inhibitory Activity: Inhibition.
The mark [4] stands for this setting: Conc. 2 μM, Table 1, read-out: OPRT Inhibitory Activity: Inhibition.

Where two headings read alike, the source gives them in different places.

The term inhibition denotes the change of the read-out against control, counted positive when it falls. With `O=C(O)c1cc(O)nc(O)c1` [Citra. A., citrazinic acid, reference compound], the inhibition at 0.2 µM is 31.9% under setting [1] and 0% under setting [3]. In addition, the inhibition at 2 µM reads like this: under setting [2], 75.1%; under setting [4], 20%. Moreover, the “OPRT Inhibitory Activity: Activity” value amounted to 0.379 nmol/mL/min (Conc. 0.2 μM, Table 1); 0.301 nmol/mL/min (Conc. 2 μM, Table 1); 0.173 nmol/mL/min (Conc. 20 μM, Table 1); 0.075 nmol/mL/min (Conc. 200 μM, Table 1). Where the note is “Conc. 20 μM, Table 1”, this compound gave an inhibition at 20 µM of 54%. Under “Conc. 200 μM, Table 1”, this compound yielded an inhibition at 200 µM of 80%.
In the case of `CCOCn1cc(F)c(=O)n(C(=O)c2cccc(C(=O)Oc3cc(OC(=O)c4cc(O)nc(O)c4)c(Cl)cn3)c2)c1=O` [Compound I-2, 3-{3-[4-(2,6-dihydroxyisonicotinoyloxy)-5-chloro-2-pyridyloxycarbonyl]benzoyl}-1-ethoxymethyl-5-fluorouracil], the “OPRT Inhibitory Activity: Activity” value runs as follows: (Conc. 0.2 μM, Table 1) 0.375 nmol/mL/min; (Conc. 2 μM, Table 1) 0.280 nmol/mL/min; (Conc. 20 μM, Table 1) 0.168 nmol/mL/min; (Conc. 200 μM, Table 1) 0.069 nmol/mL/min. Besides, the inhibition at 0.2 µM under setting [3] came out at 0%. For the same compound, under setting [4], the inhibition at 2 µM amounted to 25.5%. Further, at 20 µM the inhibition (Conc. 20 μM, Table 1) was 55.3%. Further, under “Conc. 200 μM, Table 1”, the inhibition at 200 µM turned out to be 81.6%.
Turning to `CCOCn1cc(F)c(=O)n(C(=O)c2cccc(C(=O)Oc3cc(OC(=O)c4cc(OC(=O)C5CCCC5)nc(OC(=O)C5CCCC5)c4)c(Cl)cn3)c2)c1=O` [Compound I-9, 3-{3-[4-(2,6-dicyclopentanecarbonyloxyisonicotinoyloxy)-5-chloro-2-pyridyloxycarbonyl]benzoyl}-1-ethoxymethyl-5-fluorouracil], the inhibition at 0.2 µM under setting [1] amounted to 41.2%. Moreover, the inhibition at 2 µM under setting [2] was found to be 75.9%.
On the same counts, the results for `CCOCn1cc(F)c(=O)n(C(=O)c2cccc(C(=O)Oc3cc(OC(=O)c4cc(OC(C)=O)nc(OC(C)=O)c4)c(Cl)cn3)c2)c1=O` [Compound I-10, 3-{3-[4-(2,6-diacetyloxyisonicotinoyloxy)-5-chloro-2-pyridyloxycarbonyl]benzoyl}-1-ethoxymethyl-5-fluorouracil] are 27.8% and 76.4%.
One may read the IC50 as the concentration at which inhibition is half-maximal. Turning to `CCOCn1cc(F)c(=O)n(C(=O)c2cccc(C(=O)Oc3cc(OC(=O)c4cc(OC(=O)CC)nc(OC(=O)CC)c4)c(Cl)cn3)c2)c1=O` [Compound I-11, 3-{3-[4-(2,6-dipropionyloxyisonicotinoyloxy)-5-chloro-2-pyridyloxycarbonyl]benzoyl}-1-ethoxymethyl-5-fluorouracil], the IC50 (5-FU as substrate, Test Example 4, read-out: IC50 of OPRT activity inhibition) is ~15 µM. Moreover, the “OPRT Inhibitory Activity: Activity” value is 0.101 nmol/mL/min (Conc. 0.2 μM, Table 5); 0.098 nmol/mL/min (Conc. 2 μM, Table 5); 0.046 nmol/mL/min (Conc. 20 μM, Table 5). For the same compound, for the setting “Conc. 0.2 μM, Table 5, read-out: OPRT Inhibitory Activity: Inhibition”, the inhibition at 0.2 µM came out at 42.6%. For the same compound, the inhibition at 2 µM (Conc. 2 μM, Table 5, read-out: OPRT Inhibitory Activity: Inhibition) was determined as 73.4%. Besides, the inhibition at 20 µM (Conc. 20 μM, Table 5) worked out at 87.5%.

The values above are taken from patent publication US8889699B2, “5-fluorouracil derivative” (Delta-Fly Pharma, Inc., priority 2009, dated 2014).
